Measured values published in patent US9365533B2, “Coumarin derivative” (NIPPON ZOKI PHARMACEUTICAL CO., LTD., priority 2012, dated 2016).

Experiments:
[1] = tested on: cartilage pieces of bovine metacarpophalangeal joint; test: Suppressive action to cartilage destruction: release of sGAG induced by IL-1α from cartilage pieces; format: cell-based; conditions: Bos taurus, 96 h; 25 μmol/L test substance, 2 h pretreatment; human recombinant IL-1α 3 ng/mL; 4 days at 37° C.; read-out: sGAG Releasing Suppressive Rate (%)
Experimental: Evaluation of Suppressive Action to Cartilage Destruction [Release of sGAG Induced by Interleukin-1α (IL-1α)]
(1) Incubation of Cartilage Pieces
Each four cartilage pieces of bovine metacarpophalangeal joint were placed in each well of a 48-well plate and pretreated for 2 hours with a basal medium [D-MEM (Dulbecco's Modified Eagle Medium) containing 2 mmol/L of glutamine, 25 mmol/L of Hepes, 100 μg/mL of streptomycin, 100 IU/mL of penicillin and 5.6 μg/mL of amphotericin B] containing 25 μmol/L of a test substance. Human recombinant IL-1α (3 ng/mL) was added thereto followed by incubating at 37° C. for 4 days in a CO2 incubator set at 5 vol % of CO2. Culture supernatant and cartilage pieces were recovered and stored by freezing until the measurement for each of them.
(2) Measurement of the Amount of sGAG and Calculation of the Suppressive Rate for the Release of sGAG
The recovered cartilage pieces were treated with a papain solution [containing 1 mg/mL of papain, 100 mmol/L of sodium phosphate (pH 6.5), 5 mmol/L of L-cysteine and 5 mmol/L of disodium ethylenediaminetetraacetate (EDTA)] at 65° C. for about 16 hours to solubilize. Amount of sGAG in the resulting extract was measured using an sGAG Alcian Blue Binding Kit (Wieslab AB) which is a quantitative kit to which a Alcian blue staining protocol is applied. sGAG in the culture supernatant after the incubation was measured without subjecting to a papain treatment. Each releasing rate of sGAG was determined by the following formula to calculate the suppressive rate for the release of sGAG. Releasing rate (%) of sGAG={(Total sGAG amount in the culture supernatant)/[(Total sGAG amount in the culture supernatant)+(Total sGAG amount in the cartilage pieces)]}×100 Suppressive rate (%) for release of sGAG={[Releasing rate of sGAG (IL-1α stimulation)−Releasing rate of sGAG (Test substance)]/[Releasing rate of sGAG (IL-1α stimulation)−Releasing rate of sGAG (Non-stimulation)]}×100

[2] = tested on: HFLS-OA cells; test: Suppressive action to TNF-α-induced proliferation of synovial cells (HFLS-OA), BrdU ELISA; format: cell-based; conditions: Synovial cell, 120 h; 200 μmol/L test substance; human recombinant TNF-α 10 ng/mL; 5 days; BrdU incorporation increase by TNF-α = 100%; read-out: Synovial Cell Proliferation Rate (%)
Experimental: Evaluation of Suppressive Action to Cell Proliferation of Synovial Cells (HFLS-OA) Derived from Tissues of Human Osteoarthritis
(1) Incubation of HFLS-OA Cells
HFLS-OA cells were sown onto a 96-well plate so as to make them 10^4 cells/well/100 μL in a D-MEM containing 2 vol % of fetal bovine serum (FBS) and incubated for 24 hours. A test substance (200 μmol/L) and human recombinant TNF-α (10 ng/mL) were added thereto followed by incubating for 5 days.
(2) Measurement of Action to HFLS-OA Cell Proliferation
A kit [Cell Proliferation ELISA, BrdU (colorimetric) (Roche Diagnostics)] was used and measurement was conducted according to the protocol attached to the kit. HFLS-OA cells were incubated for 3 days and 10 μL of 5-bromo-2′-deoxyuridine (BrdU) dissolved in a phosphate buffered saline (PBS) (100 μmol/L, pH 7.4) was added to each well followed by incubating for 48 hours more. After the culture supernatant was removed from each well, 200 μL/well of an immobilization/denaturation solution was added thereto and the mixture was allowed to stand for 30 minutes whereby immobilization of the cells and denaturation of DNA were conducted. After the immobilization/denaturation solution was completely removed, 100 μL of a peroxidase-labeled anti-BrdU antibody solution was added thereto and the mixture was made to react at room temperature for 90 minutes. After washing with PBS, 100 μL of a substrate liquid (tetramethylbenzidine) was added to each well and the absorbance was measured. A cell proliferation rate upon addition of each test substance was calculated where an increase in incorporation of BrdU upon addition of TNF-α was defined as 100% of cell proliferation rate.

Row | SMILES | inhibition at 25 µM [1] [%] | activity at 200 µM [2] [%]
1 | O=c1oc2c(OS(=O)(=O)c3cccc([N+](=O)[O-])c3)cccc2cc1NS(=O)(=O)c1cccc(Br)c1 [Compound 54, 3-[(3-Bromophenyl)sulfonylamino]-2-oxochromen-8-yl 3-nitrobenzenesulfonate] | 136 | -44.4
2 | O=c1oc2c(OS(=O)(=O)c3cccc([N+](=O)[O-])c3)cccc2cc1NS(=O)(=O)c1ccc(-c2ccccc2)cc1 [Compound 55, 2-Oxo-3-[(4-phenylphenyl)sulfonylamino]chromen-8-yl 3-nitrobenzenesulfonate] | 117 | -32.2
3 | O=c1oc2c(OS(=O)(=O)c3cccc(C(F)(F)F)c3)cccc2cc1NS(=O)(=O)c1cccc(Br)c1 [Compound 56, 3-[(3-Bromophenyl)sulfonylamino]-2-oxochromen-8-yl 3-(trifluoromethyl)benzenesulfonate] | 133 | -44.4
4 | O=c1oc2c(OS(=O)(=O)c3ccc(C(F)(F)F)cc3)cccc2cc1NS(=O)(=O)c1cccc(C(F)(F)F)c1 [Compound 57, 2-Oxo-3-[[3-(trifluoromethyl)phenyl]sulfonylamino]-chromen-8-yl 4-(trifluoromethyl)benzenesulfonate] | 140 | -50
5 | O=c1oc2c(OS(=O)(=O)c3ccc(C(F)(F)F)cc3)cccc2cc1NS(=O)(=O)c1cccc(Br)c1 [Compound 58, 3-[(3-Bromophenyl)sulfonylamino]-2-oxochromen-8-yl 4-(trifluoromethyl)benzenesulfonate] | 129 | -42.8
6 | O=c1oc2c(OS(=O)(=O)c3cccc(Br)c3)cccc2cc1NS(=O)(=O)c1cccc([N+](=O)[O-])c1 [Compound 59, 3-[(3-Nitrophenyl)sulfonylamino]-2-oxochromen-8-yl 3-bromobenzenesulfonate] | 123 | -32.8
7 | O=c1oc2c(OS(=O)(=O)c3cccc(Br)c3)cccc2cc1NS(=O)(=O)c1cccc(C(F)(F)F)c1 [Compound 60, 2-Oxo-3-[[3-(trifluoromethyl)phenyl]sulfonylamino]-chromen-8-yl 3-bromobenzenesulfonate] | 138 | -44.4
8 | O=c1oc2c(OS(=O)(=O)c3cccc(Br)c3)cccc2cc1NS(=O)(=O)c1ccc(C(F)(F)F)cc1 [Compound 61, 2-Oxo-3-[[4-(trifluoromethyl)phenyl]sulfonylamino]-chromen-8-yl 3-bromobenzenesulfonate] | 140 | -40.6
9 | O=c1oc2c(OS(=O)(=O)c3ccc(-c4ccccc4)cc3)cccc2cc1NS(=O)(=O)c1cccc([N+](=O)[O-])c1 [Compound 62, 3-[(3-Nitrophenyl)sulfonylamino]-2-oxochromen-8-yl 4-phenylbenzenesulfonate] | 140 | -49.2
10 | O=c1oc2c(OS(=O)(=O)c3ccc(-c4ccccc4)cc3)cccc2cc1NS(=O)(=O)c1cccc(C(F)(F)F)c1 [Compound 63, 2-Oxo-3-[[3-(trifluoromethyl)phenyl]sulfonylamino]-chromen-8-yl 4-phenylbenzenesulfonate] | 137 | -47.9
11 | O=c1oc2c(OS(=O)(=O)c3ccc(-c4ccccc4)cc3)cccc2cc1NS(=O)(=O)c1ccc(C(F)(F)F)cc1 [Compound 64, 2-Oxo-3-[[4-(trifluoromethyl)phenyl]sulfonylamino]-chromen-8-yl 4-phenylbenzenesulfonate] | 136 | -45.9
12 | O=c1oc2c(OS(=O)(=O)c3ccc(-c4ccccc4)cc3)cccc2cc1NS(=O)(=O)c1cccc(Br)c1 [Compound 65, 3-[(3-Bromophenyl)sulfonylamino]-2-oxochromen-8-yl 4-phenylbenzenesulfonate] | 115 | -45.9
13 | O=c1oc2c(OS(=O)(=O)c3ccc(-c4ccccc4)cc3)cccc2cc1NS(=O)(=O)c1ccc(-c2ccccc2)cc1 [Compound 66, 2-Oxo-3-[(4-phenylphenyl]sulfonylamino]chromen-8-yl 4-phenylbenzenesulfonate] | 38 | -37.9
14 | O=c1oc2c(OS(=O)(=O)c3cccc([N+](=O)[O-])c3)cccc2cc1NS(=O)(=O)c1ccc(C(F)(F)F)cc1 [Compound 67, 2-Oxo-3-[[4-(trifluoromethyl)phenyl]sulfonylamino]-chromen-8-yl 3-nitrobenzenesulfonate] | 115 | -38.9
15 | O=c1oc2c(OS(=O)(=O)c3cccc(C(F)(F)F)c3)cccc2cc1NS(=O)(=O)c1ccc(C(F)(F)F)cc1 [Compound 68, 2-Oxo-3-[[4-(trifluoromethyl)phenyl]sulfonylamino]-chromen-8-yl 3-(trifluoromethyl)benzenesulfonate] | 124 | -42.8
16 | O=c1oc2c(OS(=O)(=O)c3ccc(C(F)(F)F)cc3)cccc2cc1NS(=O)(=O)c1cccc([N+](=O)[O-])c1 [Compound 69, 3-[(3-Nitrophenyl)sulfonylamino]-2-oxochromen-8-yl 4-(trifluoromethyl)benzenesulfonate] | 126 | -40.6
17 | O=c1oc2c(OS(=O)(=O)c3ccc(C(F)(F)F)cc3)cccc2cc1NS(=O)(=O)c1ccc(-c2ccccc2)cc1 [Compound 70, 2-Oxo-3-[(4-phenylphenyl)sulfonylamino]chromen-8-yl 4-(trifluoromethyl)benzenesulfonate] | 103 | -39
